# From patent US11752099B2, “Injectable and biodegradable polymer formulations for controlled release of bioactive agents” (W. L. Gore & Associates, Inc., priority 2017, dated 2023)
# System: eyes of an animal subject
# Details: in vivo
# Method: The copolymer PLA:GA Resomer® RG 756 S, Poly(D,L-lactide-co-glycolide) purchased from Evonik Industries, Germany, was dissolved in 11 g of triacetin (Sigma-Aldrich, St. Louis) in 25 ml glass vials to obtain approximately a 6% solution by maintaining the mixture on a stir plate with a magnetic stir bar. The molecular weight was 76,000 for the PLGA polymer. The solution was processed aseptically through a 0.2 μm sterile filter into 1 ml syringes. Each syringe contained approximately 200 μl of formulation.
# The polymer formulations were delivered into the eyes of an animal subject and each eye only received a single injection. […] The in-life period of the polymer formulation injections was approximately 90 days. Approximately every week the intraocular pressure (IOP) was measured.
# At retrieval, the eyes were examined and inter ocular pressure (IOP) was obtained. The eyes were gently removed, examined, and fixed in Davidson's Solution for a minimum of 24 hours. Post fixation, the eyes were processed for histological analyses.
# The tissue samples were processed to yield histological slides and were examined under microscope for inflammation. […]
substance,measurement,value
D/L-PLA:TMC:PGA [Example 17],IOP immediately post-op,much higher than the baseline
same,"average normalized IOP values, relative to baseline before implantation (FIG. 10)",≤ 100%
same,inflammation on histological slides,no inflammation was noted
same,time for immediate rise in IOP to return to normal values,≤ 30 min
same,visual examination of the eyes at retrieval,no abnormalities observed
same,visual inspection with an ophthalmoscope (redness of the retina),no redness of the retina
"Poly(D,L-lactide-co-glycolide) [Resomer® RG 756 S, reference compound]",IOP immediately post-op,much higher than the baseline
same,"average normalized IOP values, relative to baseline before implantation (FIG. 10)",above 100%
same,inflammation on histological slides,revealed inflammation
same,time for immediate rise in IOP to return to normal values,≤ 30 min
same,visual inspection with an ophthalmoscope (redness of the retina),"redness of the retina, a sign of inflammation, in one observation"
